System: 3T3-L1 adipocytes
Assay: Glucose uptake activity assay (2-deoxy-D-[3H]glucose uptake)
Type: cell-based
Settings: 12-well plates, 15 min incubation, FIG. 1
Method: Glucose uptake activity assay. Glucose uptake activity was analyzed by measuring the uptake of 2-deoxy-D-[^3H] glucose as described previously (Sakoda, H, et al. (1999) Diabetes 48: 1365-1371; Garcia de Herreros, A. & Birnbaum, M. J. (1989) J. Biol. Chem. 264: 19994-19999). Briefly, confluent 3T3-L1 adipocytes grown in 12-well plates were washed twice with serum-free DMEM and incubated with 1 mL of the same medium at 37° C. for 2 h. The cells were washed 3 times with Krebs-Ringer-Hepes (KRP) buffer and incubated with 0.9 mL KRP buffer at 37° C. for 30 min. Insulin and/or BE were then added and adipocytes were incubated at 37° C. for 15 min. Glucose uptake was initiated by the addition of 0.1 ml, KRP buffer and 3.7×10^7 Bq/L 2-deoxy-D-[^3H] glucose and 1 mmol/L glucose as final concentrations. After 10 min, glucose uptake was terminated by washing the cells 3 times with cold PBS. The cells were lysed with 0.7 mL of 1% Triton X-100 at 37° C. for 20 min. The radioactivity retained by the cell lysates was determined by a scintillation counter. Nonspecific glucose uptake was measured at a glucose concentration of 100 mmol/L. Assay data were statistically analyzed using the paired Student's t-test, with P<0.05 set as the significant difference level.

## insulin: Bovine insulin from Sigma Chemical, positive control
  stimulation of glucose uptake in 3T3-L1 adipocytes: could stimulate glucose uptake

Source: patent US20040258773A1, “Composition and methods for treating subjects with hyperglycemia” (priority 2004, published 2004)
